Reference: publication PMC12344774, “Ferrocenyl Quinoline-Benzimidazole Hybrids: A Multistage Strategy to Combat Drug-Resistant Malaria” (Inorganic Chemistry, 2025)
Like-named read-outs stand apart in the source and are kept apart here.

Experiments:
β-hematin formation = assay: NP-40 detergent-mediated β-hematin formation inhibition assay (cell-free); type: biochemical; details: NP-40, pH 4.8, 5 h, 37 °C, read-out: β-hematin formation inhibition IC50 ± SEM
Source text: The ability of a compound to inhibit Hz formation can be predicted using the biomimetic cell-free NP40 detergent-mediated β-hematin formation inhibition assay. , This assay mimics the conditions in the acidic DV of the parasite and relies on the binding of pyridine to uncrystallized free heme to detect the inhibition of β-hematin formation using UV–vis spectroscopy (with absorbance measured at 405 nm). , Consequently, the ability of the ferrocenyl quinoline-benzimidazole hybrids (C1–C5) to inhibit β-hematin (synthetic Hz) formation was investigated as a potential mechanism of antiplasmodial action.
The β-hematin formation inhibition assay was modified from the method reported by Sandlin et al. , Stock solutions of the respective test compounds were prepared to 10 mM, in 100% DMSO, with the exception of CQ (used in the salt form, CQDP), which was prepared in Milli-Q water. […] NP-40 is a detergent used to mediate the formation of β-hematin. The solution in column 12 was then serially diluted 2-fold, through to column 2, to give a total of 11 concentrations. Column 1 contained 0 μM of the test compound and thus served as a blank. […] A 178.8 μL aliquot of this hematin suspension was added to 20.0 mL of a 2 M acetate buffer (pH = 4.8) and 100 μL of this solution added to each well. The plates were then covered and incubated for 5 h, at 37 °C. The assay was analyzed using the pyridine-ferrochrome method developed by Ncokazi and Egan. A solution containing water/acetone/2 M HEPES buffer (pH 7.4)/pyridine, in a v/v ratio of 2/2/1/5, was prepared and 32 μL was added to all wells, followed by 60 μL of acetone. The absorbance values were then measured at 405 nm, the results plotted using GraphPad Prism (v5), and the IC50 values obtained using a sigmoidal dose–response curve fitting analysis.

PfNF54 = assay: In vitro ABS antiplasmodial activity, pLDH assay, drug-sensitive NF54; type: cell-based, Plasmodium falciparum; details: read-out: PfNF54 IC50 ± SEM
Source text: (§1) This side chain is also present in the well-known antiplasmodial agent, FQ.
(§2) Test samples were screened in technical duplicate or triplicate, for three or four biological replicates, for their in vitro blood stage antiplasmodial activity against both the drug-sensitive (NF54) and multidrug-resistant (K1) strains of . Continuous in vitro cultures of asexual erythrocyte stages of were maintained using a modified method of Trager and Jensen. A quantitative assessment of the in vitro antiplasmodial activity was determined via the parasite lactate dehydrogenase (pLDH) assay, using a modified method described by Makler and Hinrichs.
(§3) The test samples were prepared to a 20 mg/mL stock solution in 100% DMSO. Stock solutions were stored at −20 °C. Further dilutions were prepared in complete medium on the day of the experiment. […] Chloroquine diphosphate (CQDP) was used as the reference drug in all experiments. Test samples were tested at a starting concentration of either 100 μg/mL, 50 μg/mL, 10 μg/mL, or 1 μg/mL, which was then serially diluted 2-fold, in complete medium, to give 10 concentrations. The same dilution technique was used for all samples. […] The IC50 values were obtained from full dose–response curves, using a nonlinear dose–response curve fitting analysis, via GraphPad Prism v.5 software.

PfK1 = assay: microbe, parasite or virus in culture; type: cell-based, Plasmodium falciparum; details: read-out: PfK1 IC50 ± SEM
Source text: as §1, §2, §3

CHO cell line [1] = system: CHO cell line
Description: (§6) The samples were tested over 48 h against the Chinese hamster ovarian (CHO) cell line to determine general cytotoxicity. […] Quantitative assessment of toxic activity in vitro was determined via the MTT assay using the method described. Cell viability was determined colorimetrically using the breakdown of a dye by enzymes of the electron transport chain, taking place in the mitochondria of metabolically active living cells, as a marker for survival.
(§7) Compounds were tested in triplicate on a single occasion against these cells using the MTT assay. The test samples were prepared to a 10 mM stock solution, in 100% DMSO, and stored at −20 °C until use. Samples were tested as a suspension if not completely dissolved. Further dilutions to the desired starting concentration were freshly prepared in growth media at the start of the experiment.
(§8) Cells were plated to a density of 10^5 cells/well in 96-well plates and allowed to attach for 24 h. […] After 44 h MTT was added, and the plates were read 4 h later at 540 nm on a spectrophotometer following the addition of 100 μL of DMSO and gentle plate-shaking to solubilize and visualize the dye. Survival was plotted against concentration, and the IC50 values were obtained using a nonlinear dose–response curve fitting analysis via the Dotmatics software platform.

[2] = system: Immature gametocytes (>90% stage II/III); assay: microbe, parasite or virus in culture; type: cell-based, Plasmodium falciparum; details: for % Inhibition, immature gametocytes: maximum inhibition at 10 μM, 48 h drug pressure; for inhibition at 5 µM: Plasmodium falciparum, read-out: % Inhibition, immature gametocytes (controls)
Description: (§4) Compounds are diluted 3-fold in at least a 9-point serial dilution series starting at 20 μM, with a nonlethal DMSO concentration of <0.1% maintained. Luciferase activity was determined in 30 μL parasite lysates by adding 30 μL luciferin substrate (Promega Luciferase Assay System) at room temperature and detection of resultant bioluminescence at an integration constant of 10 s with the GloMax-Multi + Detection System with Instinct Software. Methylene blue (5 μM) and the clinical antimalarial candidate MMV390048 (5 μM) were used as controls. IC50 values were determined in GraphPad Prism using a nonlinear regression fit with variable slope (4-parameter) on the dose–response data.
(§5) Assay quality parameters are evaluated for each assay, including Z′-factors (data quality compared to reproducibility using signal, noise, and background parameters; accepted metric >0.6), regression (accepted r 2 > 0.9); >80% viable parasites (top plateau); <20% killed parasites (bottom plateau), hill slope ∼1.

[3] = system: Mature gametocytes (>95% stage V); assay: microbe, parasite or virus in culture; type: cell-based, Plasmodium falciparum; details: for % Inhibition, mature gametocytes: maximum inhibition at 10 μM, 48 h drug pressure; for inhibition at 5 µM: Plasmodium falciparum, read-out: % Inhibition, mature gametocytes (controls)
Description: as §4, §5

[4] = Hydroxyl radical (ROS) generation with H2O2, DCFH2 fluorescent probe; details: 200 μM in 1:4 DMSO/PBS, H2O2 and H2DCF added, 30 min
Source text: Fluorogenic redox-sensitive probes are often employed to measure the presence of ROS, due to their low cost, ease of use, and nontoxicity, allowing for spectrofluorimetric measurements. 2′,7′-Dichlorodihydrofluorescein diacetate (DCFH2-DA) is the most widely used fluorogenic probe. Cleavage of the acetate groups, through alkaline hydrolysis, generates 2′,7′-dichlorodihydrofluorescein (DCFH2), which in the presence of oxidants, yields the highly fluorescent 2′,7′-dichlorofluorescein (DCF, λem = 523 nm). The DCFH2 probe reacts with an array of oxidants, making it an ideal indicator of general oxidative stress. […] The presence of these radicals was confirmed by monitoring the fluorescence over time (Figure ). […].
Stock solutions of DCFH2-DA were prepared to 1 mM in 100% DMSO and stored at −20 °C in the dark until use. The deacetylation of DCFH2-DA involved adding 2 μL of a 0.5 M NaOH solution to 200 μL of the 1 mM DCFH2-DA stock solution. The solution was mixed for 30 min, in the dark, at room temperature and then quenched with 800 μL of PBS buffer to obtain a 200 μM H2DCF 1:4 DMSO/PBS solution mixture.
[…]. The fluorometer was blanked using a 1:4 DMSO/PBS solution mixture. To identify hydroxyl radical production, 2 μL of a 0.5% H2O2 solution was added to 900 μL of the 200 μM complex solution in a cuvette at 25 °C. 100 μL of the prepared H2DCF solution (200 μM) was quickly added, and the readings recorded at 530 nm (emission wavelength), at 2 min intervals, over 30 min.

[5] = Cyclic voltammetry of the ferrocene/ferrocenium couple; type: physicochemical; details: for Reversibility of the ferrocene/ferrocenium couple: DCM/0.1 M TBAP system; for Ipc/Ipa / ΔE / Anodic peak potential Epa / Cathodic peak potential Epc / Half-wave potential E1/2: scan rate 100 mV/s, CH2Cl2, 0.1 M TBAP; for Anodic peak potential Epa / Cathodic peak potential Epc / Half-wave potential E1/2: vs Ag/AgCl
Description: It has been proposed that the oxidation of ferrocene (Fe(C5H5)2) to the ferrocenium cation (Fe(C5H5)2 ^+) is a reversible one-electron transfer process. […] This prompted the investigation into the electrochemical properties of the Fe(C5H5)2/Fe(C5H5)2 ^+ couple in complexes C1–C5, using cyclic voltammetry. FQ was used as the reference, as it is considered the benchmark for all newly developed ferrocenyl-based antiplasmodials.
Nuclear magnetic resonance (NMR) spectra were recorded on a Bruker XR600 MHz spectrometer (^1H at 599.95 MHz and ^13C{^1H} at 151.0 MHz), a Bruker […] (^1H at 400.22 MHz and ^13C{^1H} at 100.65 MHz), or a Varian Mercury 300 (^1H at 300.08 MHz) spectrometer. These were equipped with a Bruker Biospin GmbH casing and sample injector at 30 °C and tetramethylsilane (TMS) was used as the internal standard. Coupling constants are reported in Hz and chemical shifts are reported in ppm relative to residual solvent signals. Infrared (IR) spectroscopy was performed on a PerkinElmer Spectrum 100 FT-IR spectrometer, using attenuated total reflectance (ATR), with vibrations measured in units of cm^–1. Cyclic voltammetric measurements were carried out at ambient temperature under an inert argon atmosphere using a three-electrode system on a BASi Epsilon Eclipse potentiostat/galvanostat electrochemical workstation. The C-3 cell stand, equipped with a glassy carbon working electrode, Ag/AgCl (saturated NaCl) reference electrode, and a Pt wire auxiliary electrode were used to carry out electrochemical measurements. All experiments were carried out in anhydrous dichloromethane containing 0.10 M tetra-n-butylammonium perchlorate (TBAP) as the supporting electrolyte.

CHO cell line [6] = assay: Cytotoxicity, MTT assay; details: selectivity index
Description: as §6, §7, §8

NF54 = details: drug-sensitive NF54; footnote e: Results from ref (number not given); read-out: PfNF54 IC50 ± SEM; cited from earlier work
K1 = details: MDR K1; footnote e: Results from ref (number not given); read-out: PfK1 IC50 ± SEM; cited from earlier work
[7] = drug-sensitive NF54, ABS, pLDH, 48 h incubation
[8] = MDR K1, ABS, pLDH, 48 h incubation

| Compound | IC50 (β-hematin formation) [nM] | IC50 (PfNF54; Plasmodium falciparum, NF54, 48 h) [nM] | IC50 (PfK1; Plasmodium falciparum, 48 h) [nM] | CC50 (CHO cell line [1]) [nM] | % Inhibition, immature gametocytes [2] [%] | % Inhibition, mature gametocytes [3] [%] | Hydroxyl radical generation (fluorescence intensity over time) [4] | IC50 (PfNF54; [7]) [nM] | IC50 (PfK1; [8]) [nM] | Reversibility of the ferrocene/ferrocenium couple [5] | Ipc/Ipa [5] | ΔE [5] [V] | Anodic peak potential Epa [5] [V] | Cathodic peak potential Epc [5] [V] | Half-wave potential E1/2 [5] [V] | SI (CC50 CHO/IC50 NF54) (CHO cell line [6]) | IC50 (NF54) [nM] | IC50 (K1) [nM] | inhibition at 5 µM [2] [%] | inhibition at 5 µM [3] [%] |
| --- | --- | --- | --- | --- | --- | --- | --- | --- | --- | --- | --- | --- | --- | --- | --- | --- | --- | --- | --- | --- |
| CCN(CC)CCCC(C)Nc1ccnc2cc(Cl)ccc12 (stereo not shown) [CQ, chloroquine, reference compound] | 11000 ± 870 | 15 ± 1 | 170 ± 10 | – | – | – | – | – | – | – | – | – | – | – | – | – | – | – | – | – |
| Cc1ccc2c(c1)nc(-[c-]1cccc1)n2CCNCCNc1ccnc2cc(Cl)ccc12.[Fe+2].c1cc[cH-]c1 [Complex C2, N1-(7-Chloroquinolin-4-yl)-N2-(2-(5-methyl-2-ferrocenyl-1H-benzo[d]imidazole-1-yl)ethyl)ethane-1,2-diamine] | 4470 | – | – | > 50000 | 75 | 32 | no changes in the fluorescence intensity | 38 ± 2 | 9.4 ± 0.9 | chemically and electrochemically reversible | 1.03 | 0.133 | 0.651 | 0.518 | 0.584 | – | – | – | – | – |
| Cc1ccc2c(c1)nc(-[c-]1cccc1CN(C)C)n2CCNCCNc1ccnc2cc(Cl)ccc12.[Fe+2].c1cc[cH-]c1 (stereo not shown) [Complex C4, N1-(7-Chloroquinolin-4-yl)-N2-(2-(5-methyl-2-(2-N,N-dimethylaminomethyl)ferrocenyl-1H-benzo[d]imidazole-1-yl)ethyl)ethane-1,2-diamine] | 4900 | – | – | 29800 ± 500 | 59 | 72 | produce hydroxyl radicals | 38 ± 3 | 170 ± 20 | chemically and electrochemically irreversible | – | – | 0.662 | – | – | 784.2 | – | – | – | – |
| Cc1ccc2c(c1)nc(-[c-]1cccc1)n2CCN(CCNc1ccnc2cc(Cl)ccc12)[c-]1cccc1.[Fe+2].[Fe+2].c1cc[cH-]c1.c1cc[cH-]c1 [Complex C5, N1-Ferrocenyl-N2-(7-Chloroquinolin-4-yl)-N1-(2-(5-methyl-2-ferrocenyl-1H-benzo[d]imidazole-1-yl)ethyl)ethane-1,2-diamine] | 37700 ± 770 | – | – | > 50000 | 60 | 32 | no changes in the fluorescence intensity | 1510 ± 140 | 14500 ± 1140 | chemically and electrochemically reversible | 1.04 | 0.190 | 0.632 | 0.442 | 0.537 | – | – | – | – | – |
| CN(C)Cc1ccc[c-]1CNc1ccnc2cc(Cl)ccc12.[Fe+2].c1cc[cH-]c1 (stereo not shown) [FQ, ferroquine, reference compound] | – | – | – | – | – | – | generate hydroxyl radicals | – | – | chemically and electrochemically reversible | 1.00 | 0.125 | 0.613 | 0.488 | 0.550 | – | 20 ± 3 | 23.9 ± 0.2 | – | – |
| [Fe+2].c1cc[cH-]c1.c1cc[cH-]c1 [Ferrocene, reference compound] | – | – | – | – | – | – | generate hydroxyl radicals | – | – | – | 1.05 | 0.171 | 0.543 | 0.372 | 0.458 | – | – | – | – | – |
| CS(=O)(=O)c1ccc(-c2cnc(N)c(-c3ccc(C(F)(F)F)nc3)c2)cc1 [MMV390048, reference compound] | – | – | – | – | – | – | – | – | – | – | – | – | – | – | – | – | – | – | > 77 | > 93 |
| CN(C)c1ccc2nc3ccc(=[N+](C)C)cc-3sc2c1 [Methylene blue, reference compound] | – | – | – | – | – | – | – | – | – | – | – | – | – | – | – | – | – | – | > 97 | 100 |
